Publication PMC8167799, “Discovery and Characterization of the Biflavones From Ginkgo biloba as Highly Specific and Potent Inhibitors Against Human Carboxylesterase 2” (Frontiers in Pharmacology, 2021)

Target: T1, CES2 (Homo sapiens, UniProt O00748)
T1 construct: tissue Bioreclamation IVT; […]
T1 sequence (O00748 27-559): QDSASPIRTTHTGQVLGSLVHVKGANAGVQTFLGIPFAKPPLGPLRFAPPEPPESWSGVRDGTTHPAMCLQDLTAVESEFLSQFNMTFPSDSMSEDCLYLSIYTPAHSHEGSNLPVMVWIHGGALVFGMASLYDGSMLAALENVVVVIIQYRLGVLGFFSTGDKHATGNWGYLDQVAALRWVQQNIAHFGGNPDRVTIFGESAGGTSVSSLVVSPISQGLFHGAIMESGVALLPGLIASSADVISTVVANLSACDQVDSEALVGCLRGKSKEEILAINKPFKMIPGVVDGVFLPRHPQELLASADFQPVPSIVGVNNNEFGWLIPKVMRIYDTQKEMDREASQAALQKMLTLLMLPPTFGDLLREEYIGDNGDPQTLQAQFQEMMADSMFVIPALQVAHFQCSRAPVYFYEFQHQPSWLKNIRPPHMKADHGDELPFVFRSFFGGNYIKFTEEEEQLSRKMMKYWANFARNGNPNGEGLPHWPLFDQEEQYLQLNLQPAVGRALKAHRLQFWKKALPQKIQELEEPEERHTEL
Experiment: Inhibition of CES2-catalyzed FD hydrolysis in HLMs
Assay type: biochemical
Conditions: FD as probe substrate, logarithm of IC50 in nM
Experimental: The incubation system contains following components (total volume 200 μL): 2 μL DMSO/inhibitor, 2 μL HLMs (2 μg/ml, final concentration), […] buffer PBS (pH = =7.4).

CES2 lg (IC50/nM): 3.72 ± 0.10
Substance: Quinatic acid
